From patent US20240034987A1, “SUPPLEMENTED SERUM-FREE MEDIA FOR CULTURED MEAT PRODUCTION” (Trustees of Tufts College, priority 2020, published 2024)
“Also recorded” adds a separate entry of the source.

Test system: bovine satellite cells (BSCs)
Test: Short-term growth analysis (3 and 4 days, dsDNA quantitation, brightfield imaging)
Format: cell-based
Details: for FGF-2 concentration to which medium could be lowered without significantly affecting growth: vs 40 ng/mL control; for BSC proliferation compared to B8 media alone: supplement in B8, range of concentrations, growth over four days
Experimental: Homemade B8 medium was prepared using store-bought components and a previously described formulation and method of preparation. See, Kuo, H. H. et al. Negligible-Cost and Weekend-Free Chemically Defined Human iPSC Culture. Stem Cell Reports 14, 256-270. Table 1 includes the formulation. Additionally, HiDef-B8 medium aliquots were generously provided by Defined Bioscience (Defined Bioscience #LSS-201, San Diego, CA, USA) and added DMEM/F12 with 1% antibiotic/antimycotic. Short term BSC growth (3 and 4 days) was analyzed for mixtures of serum-containing and serum-free media, as well as for pure B8 media with reduced growth factor concentrations and/or with the addition of various media supplements (Table 2). Briefly, BSCs were thawed (passage number <2) and plated in BSC-GM on 96-well tissue-culture plastic plates for each timepoint at a density of 2,500 cells/cm^2 with 0.25 ug/cm^2 iMatrix recombinant laminin-511. After 24 hours, BSC-GM was removed, cells were washed 1× with DPBS, and new media (e.g., B8+/−supplementation) was added. A list of supplements and concentrations can be found in Table 2. Media was changed on day 3, and on days 3 and 4 cells were imaged, media was aspirated from appropriate plates, and plates were frozen at −80° C. Once all timepoints were frozen, cell number was analyzed using a FluoReporter dsDNA quantitation kit (ThermoFisher #F2962) according to the recommended protocol and with fluorescence readings performed on a Synergy H1 microplate reader (BioTek Instruments, Winooski, VT, USA) using excitation and emission filters centered at 360 and 490 nm, respectively. Cell number at 3 and 4 days was analyzed relative to pure B8 or HiDef media.

| Compound | BSC proliferation compared to B8 media alone | further results |
| --- | --- | --- |
| FGF-2: fibroblast growth factor, component of B8 and Beefy-9, baseline 40 ng/mL |  | effect of complete removal of FGF-2 on cell growth and morphology (0 ng/mL FGF-2 in the media): significantly affects cell morphology; also recorded: significantly affected; effect of FGF-2 reduction on cell morphology (Beefy-9 with 5 ng/mL FGF-2, three days): did not affect morphology; FGF-2 concentration to which medium could be lowered without significantly affecting growth (in B8, four days): 5 ng/mL; FGF-2 concentration to which medium could be lowered without significantly affecting growth (in Beefy-9, four days): 1.25 ng/mL |
| IL-6: interleukin-6, media supplement (BioRad PBP021) | significantly improved |  |
| hepatocyte growth factor: hepatocyte growth factor, media supplement tested in B8 | inconsequential |  |
| CCCCCCCC/C=C\CCCCCCCC(=O)O [oleic acid, reference compound] | significantly improved | growth vs B8 control on day 4 (tested alone in B8, day 4): no significant difference |
| COc1cc(/C=C/C(=O)CC(=O)/C=C/c2ccc(O)c(OC)c2)ccc1O [curcumin, reference compound] | significantly improved |  |
| CCCCC/C=C\C/C=C\CCCCCCCC(=O)O [linoleic acid, reference compound] | significantly improved |  |
| NCCO [ethanolamine, reference compound] | inconsequential |  |
